Source: PubChem BioAssay (NCI)
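Method: 48-hour compound exposure of cells in 96-well plates, five concentrations, linear interpolation of endpoints. TGI: total growth inhibition.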

Assays:
Assay in all cases: DTP human tumour cell line panel, 48 h
[1] = test system: NCI-H23 lung
[2] = test system: OVCAR-4 ovarian
[3] = test system: HCT-116 colon
[4] = test system: HOP-18 NSCLC
[5] = test system: DMS 114 small cell lung
[6] = test system: SK-OV-3 ovarian
[7] = test system: LXFL 529 NSCLC
[8] = test system: HOP-92 NSCLC
[9] = test system: SNB-19 CNS
[10] = test system: M14 melanoma
[11] = test system: OVCAR-5 ovarian
[12] = test system: UACC-257 melanoma
[13] = test system: SN12C renal
[14] = test system: KM12 colon
[15] = test system: HCC-2998 colon
[16] = test system: HL-60(TB) leukemia
[17] = test system: U251 CNS
[18] = test system: NCI-H460 lung
[19] = test system: SF-268 CNS
[20] = test system: RPMI-8226 leukemia
[21] = test system: ACHN renal
[22] = test system: LOX IMVI melanoma
[23] = test system: HCT-15 colon
[24] = test system: NCI-H522 lung
[25] = test system: CAKI-1 renal
[26] = test system: SW-620 colon
[27] = test system: A498 renal
[28] = test system: MALME-3M melanoma
[29] = test system: MOLT-4 leukemia
[30] = test system: SR leukemia
[31] = test system: SNB-78 CNS
[32] = test system: SNB-75 CNS
[33] = test system: SK-MEL-28 melanoma
[34] = test system: XF 498 CNS
[35] = test system: TK-10 renal
[36] = test system: NCI-H226 lung
[37] = test system: A549 NSCLC
[38] = test system: 786-0 renal
[39] = test system: HOP-62 NSCLC
[40] = test system: HT29 colon
[41] = test system: SK-MEL-2 melanoma
[42] = test system: RXF 393 renal
[43] = test system: SF-295 CNS
[44] = test system: SK-MEL-5 melanoma
[45] = test system: DLD-1 colon
[46] = test system: OVCAR-8 ovarian
[47] = test system: UO-31 renal
[48] = test system: CCRF-CEM leukemia
[49] = test system: KM20L2 colon
[50] = test system: DMS 273 small cell lung
[51] = test system: COLO 205 colon
[52] = test system: IGROV1 ovarian
[53] = test system: UACC-62 melanoma
[54] = test system: M19-MEL melanoma
[55] = test system: OVCAR-3 ovarian
[56] = test system: K-562 leukemia

## CC1=C(C#N)C(=O)CC(c2ccc(Cl)cc2)N(C)N1 (stereo not drawn)
[1]
  TGI: > 100 µM
[2]
  TGI: > 100 µM
[3]
  TGI: > 100 µM
[4]
  TGI: > 100 µM
[5]
  TGI: > 100 µM
[6]
  TGI: > 100 µM
[7]
  TGI: > 100 µM
[8]
  TGI: > 100 µM
[9]
  TGI: > 100 µM
[10]
  TGI: > 100 µM
[11]
  TGI: > 100 µM
[12]
  TGI: > 100 µM
[13]
  TGI: > 100 µM
[14]
  TGI: > 100 µM
[15]
  TGI: > 100 µM
[16]
  TGI: > 100 µM
[17]
  TGI: > 100 µM
[18]
  TGI: > 100 µM
[19]
  TGI: > 100 µM
[20]
  TGI: > 100 µM
[21]
  TGI: > 100 µM
[22]
  TGI: > 100 µM
[23]
  TGI: > 100 µM
[24]
  TGI: > 100 µM
[25]
  TGI: > 100 µM
[26]
  TGI: > 100 µM
[27]
  TGI: > 100 µM
[28]
  TGI: > 100 µM
[29]
  TGI: > 100 µM
[30]
  TGI: > 100 µM
[31]
  TGI: > 100 µM
[32]
  TGI: > 100 µM
[33]
  TGI: > 100 µM
[34]
  TGI: > 100 µM
[35]
  TGI: > 100 µM
[36]
  TGI: > 100 µM
[37]
  TGI: > 100 µM
[38]
  TGI: > 100 µM
[39]
  TGI: > 100 µM
[40]
  TGI: > 100 µM
[41]
  TGI: > 100 µM
[42]
  TGI: > 100 µM
[43]
  TGI: > 100 µM
[44]
  TGI: > 100 µM
[45]
  TGI: > 100 µM

## CC(=O)N1CCN(c2ccc(OCC3COC(Cn4ccnc4)(c4ccc(Cl)cc4Cl)O3)cc2)CC1 (stereo not drawn)
[46]
  TGI: > 100 µM
[47]
  TGI: 91.9 µM
[2]
  TGI: > 100 µM
[3]
  TGI: 76.6 µM
[48]
  TGI: > 100 µM
[4]
  TGI: > 100 µM
[5]
  TGI: 43.7 µM
[6]
  TGI: > 100 µM
[7]
  TGI: > 100 µM
[8]
  TGI: > 100 µM
[10]
  TGI: 52.1 µM
[49]
  TGI: > 100 µM
[50]
  TGI: 61.4 µM
[11]
  TGI: > 100 µM
[12]
  TGI: 51.1 µM
[13]
  TGI: > 100 µM
[14]
  TGI: > 100 µM
[15]
  TGI: > 100 µM
[51]
  TGI: 40.8 µM
[16]
  TGI: > 100 µM
[18]
  TGI: > 100 µM
[20]
  TGI: > 100 µM
[21]
  TGI: > 100 µM
[22]
  TGI: 36 µM
[23]
  TGI: > 100 µM
[24]
  TGI: 99.7 µM
[25]
  TGI: > 100 µM
[26]
  TGI: > 100 µM
[27]
  TGI: > 100 µM
[28]
  TGI: > 100 µM
[29]
  TGI: > 100 µM
[30]
  TGI: 66.5 µM
[52]
  TGI: > 100 µM
[33]
  TGI: > 100 µM
[53]
  TGI: 38 µM
[35]
  TGI: 99.9 µM
[36]
  TGI: 73.6 µM
[37]
  TGI: > 100 µM
[38]
  TGI: > 100 µM
[39]
  TGI: > 100 µM
[40]
  TGI: 43.9 µM
[41]
  TGI: 39.1 µM
[42]
  TGI: 57.8 µM
[54]
  TGI: 45.1 µM
[55]
  TGI: > 100 µM
[44]
  TGI: 24.9 µM
[45]
  TGI: > 100 µM
[56]
  TGI: > 100 µM
